One compound from PMC8111447 (Frontiers in Pharmacology, 2021) can be followed below.

Structures are written as SMILES. Like-named read-outs stand apart in the source and are kept apart here.

A short description of data set [1]: Plasma pharmacokinetics in NCI-H1975 tumor-bearing mice. It is filed as in vivo. The note with it: for AUC(0-t): po, read-out: AUC0–t in plasma. The procedure: (§1) NCI-H1975 tumor-bearing mice with tumor burden of approximately 200 mm^3 were used in the pharmacokinetics and pharmacodynamics study. […] Blood samples were collected at 0 (pre-dose), 10, 30 min, 1, 2, 4, 8, and 24 h post-dose.
(§2) Ionization mode. Drug to internal standard peak area ratios for the standards were used to create a calibration curve using 1/×^2 weighted least-squares regression analysis. Concentrations of each analyte were quantified by comparing the ratios for each in-trial sample with those in the relevant calibration curve.

Data set [2] concerns phosphorylation of EGFR and ERK. The data set can be described thus: Immunohistochemistry of tumor tissue from NCI-H1975 xenograft model. It is filed as in vivo, Nu/Nu nude mice. The note with it: 6–24 h. On the procedure: Paraffin-embedded tumor tissues from each group were sectioned, mounted on positively charged glass slides, baked, deparaffinized, and rehydrated. Antigen retrieval was performed by heating slides in EDTA (pH 8.0) for 10 min. Sections were incubated in p-EGF Receptor ([…]) Rabbit antibody and Phospho-p44/42 MAPK (Erk1/2) (Thr202/Tyr204) (20G11) Rabbit antibody overnight at 4°C and then incubated with Anti-Rabbit IgG (H + L) at 37°C for 45 min. The sections were then stained with diaminobenzidine (DAB) and visualized.

Data set [3] has as its system EGFR phosphorylation (pY1068) in A431 cells. The data set can be described thus: Phosphorylation of EGFR assay, time course. It counts as cell-based, human. The settings on record: 0.1 μmol/L, 1-10 h, EGF stimulated. On the procedure:
(§3) Cells (NCI-H1975/PC-9/[…]) were seeded into a 384-well plate (10,000 cells/well), grown for 24 h, and then treated with different test compounds (0.1 μmol/L) for 1, 2, 4, 6, 8 and 10 h. A431 cells were stimulated with 100 ng/ml EGF after incubation for 10 min. Cells were washed with ice-cold HBSS before extraction with 25 μl cell lysis buffer. Phosphorylation of EGFR was measured using a sandwich ELISA assay with phospho-specific EGFR (pY1068) antibodies [AlphaLISA SureFire p-EGF Receptor (Tyr1068) Assay Kit, PerkinElmer].

The test system of data set [4] is EGFR phosphorylation (pY1068) in PC-9 cells. In words: Phosphorylation of EGFR assay, time course. It counts as cell-based, human. The settings on record: 0.1 μmol/L, 1-10 h. The procedure:
as §3

Data set [5] deals with NCI-H1975 (L858R/T790M) xenograft. The data set can be described thus: NCI-H1975 xenograft model. It is filed as in vivo, Nu/Nu nude mice. The settings on record: for tumor growth inhibition rate: after 14 days of dosing, vs vehicle. On the procedure:
(§4) The female Nu/Nu nude mice were purchased from Beijing Vital River Laboratories. […] Nu/Nu nude mice were purchased from the Beijing Vital River Laboratories of China. The 6–8 weeks old female mice were inoculated subcutaneously at the right flank with approximately 3–5 × 10^6 tumor cells in 0.2 ml of medium. The treatments were started when the tumor size reached approximately 200 mm^3. […] All mice were orally administrated once daily for consecutive 14 days. Mouse body weight, tumor weight and tumor volume (TV) were measured twice per week. TV was then used for the calculation of tumor inhibitory rate and tumor regression rate.

For data set [6], the system named is A431 (wild-type EGFR) tumor xenografts. In words: A431 xenograft model. It is filed as in vivo, Nu/Nu nude mice. The settings on record: 5 mg/kg/day. The procedure:
as §4

In data set [7] the test system is PC-9 (exon 19 del) xenograft. The data set can be described thus: PC-9 xenograft model. It counts as in vivo, Nu/Nu nude mice. The settings on record: oral, 2.5 to 15 mg/kg. The procedure:
as §4

The nature of data set [8]: Tissue distribution in NCI-H1975 tumor-bearing mice. It counts as in vivo. The procedure:
as §1, §2

In the case of `C=CC(=O)Nc1cc(Nc2nccc(-c3c4n(c5ccccc35)CCCC4)n2)c(OC)cc1N(C)CCN(C)C` [SH-1028], the AUC(0-t) in data set [1] (Nu/Nu nude, mouse, plasma, 2.5 mg/kg, 2.5 mg/kg oral daily, Day 14) turned out to be 272 ng·h/mL; in data set [1] (Nu/Nu nude, mouse, plasma, 2.5 mg/kg, 2.5 mg/kg oral, Day 1) it was 118 ng·h/mL; in data set [1] (Nu/Nu nude, mouse, plasma, 5 mg/kg, 5 mg/kg oral daily, Day 14), 308 ng·h/mL; in data set [1] (Nu/Nu nude, mouse, plasma, 5 mg/kg, 5 mg/kg oral, Day 1), 300 ng·h/mL; in data set [1] (Nu/Nu nude, mouse, plasma, 15 mg/kg, 15 mg/kg oral daily, Day 14), 993 ng·h/mL; in data set [1] (Nu/Nu nude, mouse, plasma, 15 mg/kg, 15 mg/kg oral, Day 1) it was 931 ng·h/mL. For the same compound, the Tmax in data set [1] (Nu/Nu nude, mouse, plasma, oral 2.5, 5 and 15 mg/kg) is 1.5 to 2 h. Also, in data set [1] (oral daily dosing for 14 days), the “accumulation between Days 1–14” value was “no significant accumulation”. Further, the “phosphorylation levels of EGFR and ERK in tumor tissues” value in data set [2] was “continuously inhibit the phosphorylation of EGFR and ERK”. In addition, the “inhibitory effect on EGFR phosphorylation” value in data set [3] was “weak inhibitory effect”; in data set [4] it was “stronger than that of osimertinib”. Besides, the “tumor growth inhibition rate” value turned out to be 72.6% in data set [5] (2.5 mg/kg oral once daily), 91.8% in data set [5] (5 mg/kg oral once daily) and 98.8% in data set [5] (15 mg/kg oral once daily). Also, in data set [5] (2.5 to 15 mg/kg oral once daily, 14 days), the body weight entry is given as “no TKI-induced weight loss”. The figures for the tumor growth entry in data set [6] and in data set [7] were “moderate tumor growth inhibition” and “significant inhibition of tumor cell growth”, respectively. The “distribution into tissues (tumor tissues, adjacent lung tissues and brain)” value in data set [8] (15 mg/kg oral, within 2 h, Day 1) is “rapidly and extensively distributed into tissues”. Further, the blood-brain barrier penetration entry in data set [8] (pharmacokinetic experiments) is given as “could penetrate the blood-brain barrier”.
